Measured values taken from patent US8871205B2, “Methods and compositions for the treatment of immune disorders” (The University of North Carolina at Chapel Hill, priority 2009, dated 2014).
Entries after “also recorded” stand apart in the source; their conditions may differ.

Experiments:
peritoneal macrophages = test: TLR agonist-induced cytokine production (ELISA) in peritoneal macrophages pretreated with Rac1 inhibitor; assay type: cell-based, mouse
Experimental: Immunoblot analysis of NF-κB and mitogen-activated protein kinase (MAPK) signaling molecules was performed with WT and Plxna4^−/− peritoneal macrophages left untreated (0) or treated for 15, 30 or 60 min with 1 μg/ml ultrapure LPS (FIG. 3A). FIG. 3B and FIG. 3C show chromatin immunoprecipitation (ChIP) assays of the binding of p65 or c-Jun at the promoter regions of Tnfa and Il6 gene in WT and Plxna4^−/− peritoneal macrophages left untreated or treated with 10 μg/ml poly(I:C), 1 μg/ml ultrapure LPS (B), 5 μg/ml Pam3Cys or 4 μg/ml CpG (C) for 1 h. Cells were left untreated (0) or treated for 15 or 30 min with 1 μg/ml ultrapure LPS. Rac1, Cdc42 and RhoA pull-down analysis were performed as described in the Examples section. Total Rac1, Cdc42 and RhoA in cell lysate were used as controls. […] Protein levels of TNF-α and IL-6 were measured by ELISA. The results shown are representative of three independent experiments and are expressed as mean±s.d. * P<0.05 compared to WT peritoneal macrophages without NSC23766 pretreatment.
Total peritoneal cells were harvested from the peritoneal cavities of naïve WT or Plxna4^−/− mice with two 10 ml cold sterile PBS wash. […] The remaining cells were thoroughly washed with PBS and counted in a hemocytometer. Cytospins were prepared and stained with Diff-Quik solutions, and the number of peritoneal macrophages was determined. […]
(§1) Cytokines generated by in vitro cultured peritoneal macrophages were quantified using the ELISA Set for mouse TNF-α or IL-6 (BD Biosciences) and mouse IFN-β ELISA Kit (PBL InterferonSource). For the in vivo experiments, concentrations of TNF-α, IL-1β, IL-6, IL-12p70, CCL2 and CCL3 were measured in cell-free peritoneal lavage fluid, serum, and lung homogenate using a Customized Mouse Cytokine 6-plex Panel (BioLegend) and a Luminex Bio-Plex 200 system (Bio-Rad Laboratories). […]

[1] = tested on: WT or Plxna4−/− peritoneal macrophages; test: TNF-α and IL-6 production (RT-PCR, ELISA) in peritoneal macrophages stimulated with Sema3A-Fc or Sema6A-Fc in the absence or presence of LPS; assay type: cell-based, mouse
Experimental: Messenger RNA (FIG. 7A) or protein (FIG. 7B) levels of TNF-α and IL-6 were measured by RT-PCR and ELISA, respectively. The IgG Fc fragment (100 μg/ml) was used as a negative control. WT and Plxna4^−/− mice (n=7˜9 per group) were pretreated with either Sema3A-Fc or IgG Fc control proteins at a dosage of 25 μg per kg body weight 1 h prior to CLP procedure (FIG. 7C). Survival rate was monitored for 5 days. τP<0.05 compared with WT mice pretreated with Sema3A-Fc. WT mice (n=4 per group) were pretreated with either Sema3A-Fc or IgG Fc control proteins, followed by CLP surgery (FIG. 7D). Inflammatory cytokines in peritoneal lavage collected 4 h after CLP were determined by ELISA. * P<0.05 compared to peritoneal lavage from WT mice pretreated with Sema3A-Fc (FIG. 7E). […] WT and Plxna4^−/− mice (n=4 per group experiment) were pretreated with either Sema3A-Fc or IgG Fc control proteins at a dosage of 25 ug/kg body weight 1 hour before CLP procedure. Inflammatory cytokines in peritoneal lavage collected 4 h after CLP were determined by ELISA. *P<0.05 compared with peritoneal lavage from WT mice pretreated with Sema3A-Fc (FIG. 7G).
Total peritoneal cells were harvested from the peritoneal cavities of naïve WT or Plxna4^−/− mice with two 10 ml cold sterile PBS wash. Lavage was pooled for mice in the same group. RBCs were lysed in ammonium chloride buffer (150 mM NH4CL, 10 mM NaHCO3, 1 mM EDTA-tetrasodium). The remaining cells were thoroughly washed with PBS and counted in a hemocytometer. Cytospins were prepared and stained with Diff-Quik solutions, and the number of peritoneal macrophages was determined. […]
as §1

Rac1 = molecular target: T1, Rac1 (Mus musculus, UniProt P63001); test: Detection of GTP-bound Rac1 (pull-down) in macrophages; assay type: cell-based
T1 construct: endogenous in cells; host or cells: primary mouse peritoneal macrophages (WT, Plxna4-/-)
Experimental: The assays for GTP-bound Rac1, Cdc42 and RhoA were performed as described (Noren et al., 2000). Briefly, peritoneal macrophages were stimulated with 1 μg/ml LPS for various time periods. Cells were lysed and GTP-bound Rac1 and Cdc42 were affinity precipitated using Rac1/Cdc42-binding domain of PAK (PBD) fused with GST. GTP-bound RhoA was affinity precipitated using RhoA-binding domain of rhotekin (RBD) fused with GST. Bound proteins were resolved on a NuPAGE® (SDS PAGE) gel and were transferred onto nitrocellulose membranes. Membranes were immunoblotted with the appropriate primary antibodies against Rac1, Cdc42 or RhoA.
To assess a converging point for TLR and plexin-A4, we assayed for GTP-bound Rac1.

WT and Plxna4−/− mice [2] = test: Survival after experimental sepsis induced by CLP; assay type: in vivo; settings: 25 μg/kg 1 h prior to CLP
Experimental: (§2) WT and Plxna4^−/− peritoneal macrophages were stimulated with LPS (1 μg/ml) for 4 h in the absence or presence of either Sema3A-Fc or Sema6A-Fc fusion proteins (20 or 100 μg/ml) (FIG. 7A and FIG. 7B). Messenger RNA (FIG. 7A) or protein (FIG. 7B) levels of TNF-α and IL-6 were measured by RT-PCR and ELISA, respectively. The IgG Fc fragment (100 μg/ml) was used as a negative control. WT and Plxna4^−/− mice (n=7˜9 per group) were pretreated with either Sema3A-Fc or IgG Fc control proteins at a dosage of 25 μg per kg body weight 1 h prior to CLP procedure (FIG. 7C). Survival rate was monitored for 5 days. τP<0.05 compared with WT mice pretreated with Sema3A-Fc. […] Inflammatory cytokines in peritoneal lavage collected 4 h after CLP were determined by ELISA. * P<0.05 compared to peritoneal lavage from WT mice pretreated with Sema3A-Fc (FIG. 7E). […] Inflammatory cytokines in peritoneal lavage collected 4 h after CLP were determined by ELISA. *P<0.05 compared with peritoneal lavage from WT mice pretreated with Sema3A-Fc (FIG. 7G).
CLP surgery was performed on mice as previously described with minor modifications (Wen et al., 2008). […] For survival studies, mice subjected to surgery were monitored for 5 days. […] Colonies were counted and expressed as CFU/ml. […]
We next assessed if Sema3A engagement of plexin-A4 could synergistically exacerbate CLP-induced septic inflammation. […]

WT and Plxna4−/− mice [3] = test: Inflammatory cytokines in peritoneal lavage after CLP (ELISA); assay type: in vivo; settings: 25 μg/kg 1 h prior to CLP, 4 h after CLP, versus IgG Fc-treated controls
Experimental: as §2
Cytokines generated by in vitro cultured peritoneal macrophages were quantified using the ELISA Set for mouse TNF-α or IL-6 (BD Biosciences) and mouse IFN-β ELISA Kit (PBL InterferonSource). […]
CLP surgery was performed on mice as previously described with minor modifications (Wen et al., 2008). […] For survival studies, mice subjected to surgery were monitored for 5 days. […]

Row | Compound | cytokine production (peritoneal macrophages; TLR-activated Plxna4−/− macrophages, NSC23766 pretreatment) | IFN-β production (peritoneal macrophages; WT macrophages, Rac1 inhibition) | TNF-α and IL-6 production (peritoneal macrophages; WT peritoneal macrophages, NSC23766 200 μM pretreatment 1 h, various TLR agonists 4 h, ELISA) | LPS-induced TNF-α and IL-6 production (enhancement in LPS-responsiveness) ([1]; Plxna4−/− macrophages) | LPS-induced TNF-α and IL-6 production ([1]; WT peritoneal macrophages, suboptimal LPS, fusion proteins 20 or 100 μg/ml) | TNF-α and IL-6 production ([1]; semaphorin alone, absence of LPS, macrophages) | Rac1 activation (GTP-bound Rac1) (Rac1; Myd88−/− macrophages) | Rac1 activation (GTP-bound Rac1) (Rac1; Plxna4−/− macrophages) | Rac1 activation (GTP-bound Rac1) (Rac1; WT macrophages, LPS and Sema3A together) | Rac1 activation (GTP-bound Rac1) (Rac1; WT macrophages, single stimulus) | survival rate (WT and Plxna4−/− mice [2]) | levels of inflammatory cytokines in peritoneal lavage (WT and Plxna4−/− mice [3])
1 | CCN(CC)CCCC(C)Nc1nc(C)cc(Nc2ccc3nc(C)cc(N)c3c2)n1 (stereo not drawn) [NSC23766] | no inhibitory effect | not affected | significantly attenuate |  |  |  |  |  |  |  |  | 
2 | Sema3A: Recombinant human Sema3A-Fc (1250-S3, R&D); chimeric protein of human IgG1 Fc fragment fused to Sema3A; plexin-A4 ligand |  |  |  | completely abolished | enhanced | Neither Sema3A nor Sema6A alone induced; also recorded: failed to induce cytokine production | neither Sema3A nor LPS activated; also recorded: attenuated | not observed | enhanced this activation | resulted in Rac1 activation | did not affect | significantly higher levels
